The target in the experiment is T1, GLP-1R (Homo sapiens, UniProt P43220).
T1 construct: host or cells: CRE-bla CHO-K1
T1 sequence (P43220 24-463): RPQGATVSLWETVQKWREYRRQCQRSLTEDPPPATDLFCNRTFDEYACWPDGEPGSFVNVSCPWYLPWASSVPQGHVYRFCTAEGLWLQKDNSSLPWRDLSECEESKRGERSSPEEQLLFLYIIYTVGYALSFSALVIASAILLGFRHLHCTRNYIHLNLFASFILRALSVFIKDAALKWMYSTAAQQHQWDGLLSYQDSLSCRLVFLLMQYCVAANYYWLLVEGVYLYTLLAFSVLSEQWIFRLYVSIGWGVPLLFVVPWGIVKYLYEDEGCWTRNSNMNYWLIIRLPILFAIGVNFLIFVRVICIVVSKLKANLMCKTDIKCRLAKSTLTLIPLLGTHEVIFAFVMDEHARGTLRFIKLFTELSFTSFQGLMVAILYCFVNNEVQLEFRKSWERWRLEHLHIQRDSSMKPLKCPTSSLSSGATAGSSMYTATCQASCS
T1 sequence (P01275 100-127 partner limits assumed): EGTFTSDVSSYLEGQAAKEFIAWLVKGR
Nature of the experiment: EC20 GLP-1(9-36) PAM cAMP Assay: dose response of compound in the presence of fixed concentration of GLP-1(9-36). To be noted: GLP-1R CRE-bla CHO-K1 cells, in presence of fixed concentration of GLP-1(9-36), 30 min at 37° C. It is filed as cell-based. The method, then: EC20 GLP-1(9-36) PAM cAMP Assay: Dose Response of Compound in the Presence of Fixed Concentration of GLP-1 (9-36).
GLP-1R CRE-bla CHO-K1 cells cultured in growth medium (DMEM-High glucose, 10% dialyzed FBS, 0.1 mM NEAA, 25 mM Hepes, 100 U/mL penicillin/100 μg/mL streptomycin, 5 μg/mL Blasticidin, 600 μg/mL Hygromycin) were trypsinized and plated in suspension into 384 well white flat bottom plates at 5000 cells/well in 12 μL assay buffer (Hanks Balanced Salt solution, 10 mM Hepes, 0.1% BSA, 10 pH 7.4). A 5× compound dose response curve (12-point) was generated in assay buffer containing 1.5 mM IBMX, 4% DMSO. GLP-1(9-36) was diluted to 4.2 μM in assay buffer containing 1.5 mM IBMX and 4% DMSO. The 5× compound dose response was added (3 μL), followed by 0.5 μL of GLP-1(9-36) and cells were incubated for 30 min at 37° C. Direct detection of cAMP was carried out using DiscoveRx HitHunter cAMP kit according to manufacturer's instructions and luminescence was read using a SpectraMax M5 plate reader. Luminescence was converted to total cAMP using a cAMP standard curve and data was analyzed by non-linear regression to determine the EC50 and Emax.
For the compound `CC(C)C1CC=C(c2cnc(-c3ccc(C[C@H](NC(=O)c4ccc(C(C)(C)C)s4)C(=O)N4CC(C(=O)O)C4)cc3)nc2)CC1` (stereo partly drawn) [Compound 40], the EC50 was 500 to 2500 nM.
The same measure for `CC(C)(C)c1ccc(C(=O)N[C@@H](Cc2ccc(-c3ncc(C4CCC(C(C)(C)C)CC4)cn3)cc2)C(=O)N2CC(C(=O)O)C2)s1` (stereo partly drawn) [Compound 41]: 5000 to 10000 nM; for `CC1(C)COC2(CC=C(c3cnc(-c4ccc(CC(NC(=O)c5ccc(C(C)(C)C)s5)C(=O)N5CC(C(=O)O)C5)cc4)nc3)CC2)OC1` (stereo not drawn) [Compound 43]: 5000 to 10000 nM; for `CCCCC1CC=C(c2cnc(-c3ccc(C[C@H](NC(=O)c4ccc(C(C)(C)C)s4)C(=O)N4CC(C(=O)O)C4)cc3)nc2)CC1` (stereo partly drawn) [Compound 45]: 500 to 2500 nM.
On to `CCCC1CCN(C2CC=C(c3cnc(-c4ccc(C[C@H](NC(=O)c5ccc(C(C)(C)C)s5)C(=O)N5CC(C(=O)O)C5)cc4)nc3)CC2)CC1` (stereo partly drawn) [Compound 46], for which the EC50 lay within 2500 to 5000 nM.
For `CCCc1ccc(C2CC=C(c3cnc(-c4ccc(C[C@H](NC(=O)c5ccc(C(C)(C)C)s5)C(=O)N5CC(C(=O)O)C5)cc4)nc3)CC2)cc1` (stereo partly drawn) [Compound 47] the value was less than 500 nM; for `COC1CCC(C2CC=C(c3cnc(-c4ccc(C[C@H](NC(=O)c5ccc(C(C)(C)C)s5)C(=O)N5CC(C(=O)O)C5)cc4)nc3)CC2)CC1` (stereo partly drawn) [Compound 48], 500 to 2500 nM; for `C[C@@H](NC(=O)[C@H](Cc1ccc(-c2ncc(C3=CC(=O)CC(c4ccccc4)C3)cn2)cc1)NC(=O)c1ccc(C(C)(C)C)s1)C(=O)O` (stereo partly drawn) [Compound 49], 5000 to 10000 nM.
On to `C[C@@H](NC(=O)[C@H](Cc1ccc(-c2ncc(C3=Cc4ccccc4C3)cn2)cc1)NC(=O)c1ccc(C(C)(C)C)s1)C(=O)O` [Compound 50], for which the EC50 was 500 to 2500 nM.
The same measure for `CCC1CC=C(c2cnc(-c3ccc(C[C@H](NC(=O)c4ccc(C(C)(C)C)s4)C(=O)N[C@H](C)C(=O)O)cc3)nc2)CC1` (stereo partly drawn) [Compound 51]: 500 to 2500 nM; for `CCCC1CC=C(c2cnc(-c3ccc(C[C@H](NC(=O)c4ccc(C(C)(C)C)s4)C(=O)N[C@H](C)C(=O)O)cc3)nc2)CC1` (stereo partly drawn) [Compound 52]: 500 to 2500 nM; for `CCCCCC1CC=C(c2cnc(-c3ccc(C[C@H](NC(=O)c4ccc(C(C)(C)C)s4)C(=O)N[C@H](C)C(=O)O)cc3)nc2)CC1` (stereo partly drawn) [Compound 53]: 500 to 2500 nM.
The same measure for `C[C@@H](NC(=O)[C@H](Cc1ccc(-c2ncc(C3=CCCCC3)cn2)cc1)NC(=O)c1ccc(C(C)(C)C)s1)C(=O)O` [Compound 54]: 5000 to 10000 nM; for `CC1CC=C(c2cnc(-c3ccc(C[C@H](NC(=O)c4ccc(C(C)(C)C)s4)C(=O)N[C@H](C)C(=O)O)cc3)nc2)CC1` (stereo partly drawn) [Compound 55]: 2500 to 5000 nM.
The same measure for `C[C@@H](NC(=O)[C@H](Cc1ccc(-c2ncc(C3=CCC(C(C)(C)C)CC3)cn2)cc1)NC(=O)c1ccc(C(C)(C)C)s1)C(=O)O` (stereo partly drawn) [Compound 56]: less than 500 nM; for `C[C@@H](NC(=O)[C@H](Cc1ccc(-c2ncc(C3=CCC(C)(C)CC3)cn2)cc1)NC(=O)c1ccc(C(C)(C)C)s1)C(=O)O` [Compound 57]: 500 to 2500 nM; for `C[C@@H](NC(=O)[C@H](Cc1ccc(-c2ncc(C3=CC4CC[C@]3(C)C4(C)C)cn2)cc1)NC(=O)c1ccc(C(C)(C)C)s1)C(=O)O` [Compound 58]: 2500 to 5000 nM.
Turning to `C[C@@H](NC(=O)[C@H](Cc1ccc(-c2ncc(C3=CC(C)(C)CC(C)(C)C3)cn2)cc1)NC(=O)c1ccc(C(C)(C)C)s1)C(=O)O` [Compound 59], the EC50 is less than 500 nM.
The same measure for `C[C@@H](NC(=O)[C@H](Cc1ccc(-c2ncc(C3=CCC(C)(C)C=C3)cn2)cc1)NC(=O)c1ccc(C(C)(C)C)s1)C(=O)O` [Compound 60]: 500 to 2500 nM; for `CC(=O)C1CC=C(c2cnc(-c3ccc(C[C@H](NC(=O)c4ccc(C(C)(C)C)s4)C(=O)N[C@H](C)C(=O)O)cc3)nc2)CC1` (stereo partly drawn) [Compound 61]: less than 500 nM.
For `COC(=O)C1CC=C(c2cnc(-c3ccc(C[C@H](NC(=O)c4ccc(C(C)(C)C)s4)C(=O)N[C@H](C)C(=O)O)cc3)nc2)CC1` (stereo partly drawn) [Compound 62] the value was less than 500 nM.

One may read the EC50 as the concentration that produces a half-maximal response.

The values above are taken from patent US9474755B2, “GLP-1 receptor modulators” (Receptos, Inc., priority 2014, dated 2016).
